Tests used:
Format in all cases: cell-based
[1] = test system: isolated stratum corneum; assay: Keratolytic power, Test 2: counting corneocytes released from isolated stratum corneum, comparison with jasmonic acid; conditions: 1% by weight solution in PBS + 0.1% Triton X100, pH 7.4; 37° C., 24 hours
Experimental: (§1) The keratolytic power of a number of compounds of this disclosure was studied. This test comprises counting corneocytes released following incubation of patches of isolated stratum corneum in the presence of the test compounds.
(§2) Stratum corneum isolated by trypsin/heat from surgical plasties was used. A number of different stratum corneum samples were used. Discs of 4 mm in diameter were punched out and placed at the bottom of a 96-well plate.
A 1% by weight solution of the compound of Example 1, or jasmonic acid (comparison), was prepared in a PBS buffer supplemented with 0.1% of Triton X100. The pH of the solution was adjusted to 7.4.
(§3) 50 microliters of test solution or of control solution (PBS buffer supplemented with 0.1% of Triton X100) were added to each well. Incubation was carried out at 37° C. with stirring for 24 hours.
(§4) 10 microliters of solution were then withdrawn and were placed in a Malassez cell. The liberated corneocytes were counted under the microscope.
The results obtained are as follows, expressed as the number of liberated corneocytes per microliter, averaged over three tests. Corneocyte fragments are not counted.

[2] = test system: isolated stratum corneum; assay: Keratolytic power, Test 1: counting corneocytes released after incubating patches of isolated stratum corneum with the test compound; conditions: 1% by weight solution in PBS + 0.1% Triton X100, pH 7.4, 37° C., 24 hours
Experimental: as §1, §2
A 1% by weight solution of the compound of Example 3 was prepared in a PBS buffer supplemented with 0.1% of Triton X100. The pH of the solution was adjusted to 7.4.
as §3, §4
The results obtained are as follows, expressed as the number of liberated corneocytes per microliter, averaged over three tests. Corneocyte fragments were not counted.

[3] = test system: isolated stratum corneum; assay: Keratolytic power, Test 3: counting corneocytes released from isolated stratum corneum, PEG 8/ethanol vehicle; conditions: 2% by weight solution in water with 50% PEG 8 and 30% ethanol, 37° C., 24 hours; for number of liberated corneocytes per microliter, Sample 1: Sample 1, average over three tests; for number of liberated corneocytes per microliter, Sample 2: Sample 2, average over three tests; for number of liberated corneocytes per microliter, Average: average of Samples 1-2
Experimental: as §1, §2
A 2% by weight solution of the compound of Example 3, or 2-hydroxy-4-octanoylbenzoic acid (comparison), was prepared in an aqueous solution containing 50% by weight of polyethylene glycol (PEG 8) and 30% by weight of ethanol.
50 microliters of test solution or of control solution were added to each well. Incubation was carried out at 37° C. with stirring for 24 hours.
10 microliters of solution were then withdrawn and were placed in a Mallassez cell. The liberated corneocytes were counted under the microscope.
The results obtained are as follows, expressed as the number of liberated corneocytes per microliter, averaged over the three tests. Corneocyte fragments were not counted.

| SMILES | number of liberated corneocytes per microliter, Average (3 tests per sample, 3 different samples) [1] | number of liberated corneocytes per microliter, Average ([2]; average of Samples 1-3) | number of liberated corneocytes per microliter, Sample 1 ([2]; stratum corneum Sample 1, average over three tests) | number of liberated corneocytes per microliter, Sample 2 ([2]; stratum corneum Sample 2, average over three tests) | number of liberated corneocytes per microliter, Sample 3 ([2]; stratum corneum Sample 3, average over three tests) | number of liberated corneocytes per microliter, Sample 1 [3] | number of liberated corneocytes per microliter, Sample 2 [3] | number of liberated corneocytes per microliter, Average [3] |
| --- | --- | --- | --- | --- | --- | --- | --- | --- |
| CC/C=C\C[C@H]1C(O)CC[C@@H]1CC(=O)O (mixture of isomers) [Example 1, (+/−)(1R,2R)-3-hydroxy-2-[(2Z)-2-pentenyl]cyclopentaneacetic acid] | 26 ± 7 per microliter |  |  |  |  |  |  |  |
| CCCCC[C@H]1C(O)CC[C@@H]1CC(=O)O (mixture of isomers) [Example 3, (+/−)(1R,2R)-3-hydroxy-2-pentylcyclopentaneacetic acid] |  | 61 ± 33 per microliter | 28 ± 9 per microliter | 56 ± 7 per microliter | 101 ± 11 per microliter | 2 ± 3 per microliter | 3 ± 1 per microliter | 2.5 ± 2 per microliter |
| CCCCCCCC(=O)c1ccc(C(=O)O)c(O)c1 [2-Hydroxy-4-octanoylbenzoic acid, 2-hydroxy-4-octanoylbenzoic acid, reference compound] |  |  |  |  |  | 3 ± 3 per microliter | 4 ± 3 per microliter | 3.5 ± 3 per microliter |
| CC/C=C\C[C@H]1C(=O)CC[C@@H]1CC(=O)O (racemic) [Jasmonic acid, (+/−)(1R,2R)-3-oxo-2-[(2Z)-2-pentyl]cyclopentaneacetic acid] | 15 ± 5 per microliter |  |  |  |  |  |  |  |
